From patent publication US20080221134A1, “8-ALKYNYLXANTHINES AND DERIVATIVES” (priority 2006, published 2008)
Entries after “also recorded” stand apart in the source; their conditions may differ.

Columns and labels:
[1] = test system: CGS-21680 induced catalepsy; experiment: Acute CGS-21680 induced catalepsy test; format: in vivo, rat; conditions: for effect on catalepsy time in acute CGS-21680 induced catalepsy model: i.p. in DMSO, 0.1-10 mg/kg
Method: (§1) Animals were administered with Reserpine or CGS-21680 according to methods known to the skilled person in the art. These models and procedures are e.g. described by Ferré S. et al., Neurosci. Let., 1991, 130, 162; Ferré S. et al., Neuroscience, 1992, 51, 501; Kafka S. H. et al., Eur. J. Pharmacol., 1996, 295, 147; Rimondini R. et al., Neuropsychopharmacology, 1997, 17, 82 and are herein incorporated by reference. In the acute CGS-21680 induced catalepsy model (CGS model) the test compounds (TC, compounds according to the present invention) and CGS-21680 (i.p. 2 mg/kg) were administered 60 minutes before the start of the catalepsy bar measurement and behavioural testing described below (see also FIG. 1). In the acute Reserpine induced catalepsy model (RES model Resperine (subcutaneously, 3 mg/kg) was injected 24 h prior to the test compound application. Catalepsy bar measurement took place 60 minutes after test compound application (see FIG. 1). Test compounds were administered i.p. in DMSO in following doses (mg/kg): 0.1, 0.3, 1, 3, 10.
(§2) Dimethylsulfoxide (DMSO) was used as vehicle for the test compounds and Reserpine. Reserpine was dissolved in DMSO in a concentration of 3 mg/ml. A 10% (w/v) Cyclodextrin solution was used as vehicle for CGS-21680. CGS 21680 was dissolved in 10% (w/v) Cyclodextrine in a concentration of 2 mg/ml.
Caffeine was used as a reference compound in the CGS-21680 induced catalepsy model. A caffeine solution was prepared with water for injection purposes to a concentration of 30 mg/ml. The solution was administered intraperitoneally in a volume of 1 ml/kg (30 mg/kg) 30 minutes before the beginning of testing and after CGS-21680 pre-treatment (1 hour prior to testing).
The catalepsy bar after CGS-21680 administration was measured (CAT) as follows: The rat was placed with its forepaws on a log of wood. […] If the animal descended faster than 1 second, the trial was regarded as invalid. If more than 20 trials were rated as invalid, the values of all uncompleted trials were noted as 0. The animal was tested until five trials had been completed and the time for each trial was noted. Only the values of the last three trials were used for the analysis. The following parameters were calculated: maximum time to descend (s) and median time to descend (s).
Behavioural observation (BO) included the measurement of the body tone, inclined plane and grip strength.
The rat is taken in the hand of the observer and the animal's body tone is rated as normal, soft or hard. The rating is performed immediately after taking the animal from its home cage before performance of catalepsy testing. The following parameters were calculated: mean occurrence of hard body tone and mean occurrence of soft body tone.
The rat is horizontally placed to an inclined plane for a maximum time of 30 seconds. Time to reach bottom or top is measured. […] The test is performed after catalepsy testing. Time to leave the inclined plane(s) was measured.
The rat is put on a grip and the observer pulls the animal back on his tail. The strength (fore paws and hind paws) by which it holds on the grid is scored as grasping and pulling, grasping without pulling or no grasping. The test is performed after the inclined plane test. The following parameters were calculated: mean score of fore paw grip strength and mean score of hind paw grip strength.
(§3) All statistical tests were performed two tailed with a value of p<0.05 considered as significant.
(§4) To assess the effects of CGS-21680 and Reserpine pre-treatment compared to vehicle treated controls statistical comparisons between the test groups were performed using a U test statistic.
To assess the effects of test compounds on CGS-21680 and Reserpine pre-treated animals correlation analyses including animals from test groups and the respective test compound-treated groups were performed. […]

[2] = test system: Reserpine induced catalepsy; experiment: Acute Reserpine induced catalepsy test; format: in vivo, rat; conditions: for effect on catalepsy time in acute Reserpine induced catalepsy model: i.p. in DMSO, 0.1-10 mg/kg; for maximum catalepsy values after Reserpine treatment / median catalepsy values after Reserpine treatment: vs only Reserpine-treated animals
Method: as §1, §2
Apomorphine was used as a reference compound in the Reserpine induced catalepsy model. Apomorphine injection solution was diluted with purified water to a concentration of 0.3 mg/ml. The solution was administered subcutaneously (s.c.) in a volume of 1 ml/kg (0.3 mg/kg) 20 minutes before the begin of testing after Reserpine pre-treatment (25 hours prior to testing).
The catalepsy bar after Reserpine administration was measured (CAT) as follows: The rat was placed with its forepaws on a log of wood. […] The animal was tested for three trials and the time for each trial was noted. The following parameters were calculated: maximum time to descend (s) and median time to descend (s). […]
as §3, §4
To assess the effects of test compounds on CGS-21680 and Reserpine pre-treated animals correlation analyses including animals from test groups and the respective test compound-treated groups were performed.
Additionally, parametric and non-parametric comparisons for the median catalepsy measure were performed to assess the reliability of the method. In case of parametric testing a GLM analyses was performed including animals from a control group (only vehicle treated animals) and the respective test compound-treated groups with dose as a categorical factor. In case of a significant result, a Dunnett's post hoc test was performed between the according test compound groups and a control group as reference group. In case of non-parametric testing a Kruskal-Wallis H-test was performed including animals from a control group and the respective test compound groups. In case of a significant result single U-test comparisons were performed between a control group and the groups treated with different doses of the test compound.

[3] = test system: haloperidol induced model of Parkinson's Disease; experiment: Haloperidol induced model of Parkinson's Disease; conditions: in vivo
[4] = vs only CGS-21680-treated animals

With `C#CCn1c(=O)c2c(nc(C#Cc3ccc(OC)c(OC)c3)n2C)n(CC)c1=O` [test compound 1, 3-ethyl-8-(3,4-dimethoxyphenylethynyl)-7-methyl-1-prop-2-ynyl-3,7-dihydropurine-2,6-dione] the “effect on catalepsy time in acute CGS-21680 induced catalepsy model” value [1] was “significantly reduced catalepsy time; also recorded: significant reduction of catalepsy time; also recorded: significant effects”, the “grip strength after CGS-21680 treatment” value [1, 4] was “higher amount of grip strength” and the “hard body tone after CGS-21680 treatment” value [1, 4] was “significantly increased”. For the same compound, the “maximum catalepsy values after CGS-21680 treatment” value [1, 4] was “decreased”, the “median catalepsy values after CGS-21680 treatment” value [1, 4] was “decreased” and the “soft body tone after CGS-21680 treatment” value [1, 4] was “decreased”. For the same compound, the “effect on catalepsy time in acute Reserpine induced catalepsy model” value [2] was “significantly reduced catalepsy time; also recorded: significant reduction of catalepsy time”, the “maximum catalepsy values after Reserpine treatment” value [2] was “only weakly reduced” and the “median catalepsy values after Reserpine treatment” value [2] was “significantly reduced”. For the same compound, the “effect in haloperidol induced model of Parkinson's Disease” value [3] was “effective; also recorded: significant effects”.

`C#CCn1c(=O)c2c(nc(C#Cc3ccc(OC)c(OC)c3)n2C)n(CCCO)c1=O` [test compound 2, 3-(3-hydroxypropyl)-8-(3,4-dimethoxyphenylethynyl)-7-methyl-1-prop-2-ynyl-3,7-dihydropurine-2,6-dione] was tested, and the “effect on catalepsy time in acute CGS-21680 induced catalepsy model” value [1] was “reduced catalepsy time; also recorded: reduction of catalepsy time; also recorded: significant effects”, the “any other parameter measured after CGS-21680 treatment” value ([1]; parameters other than body tone) was “no significant effects” and the “hard body tone after CGS-21680 treatment” value [1, 4] was “significantly increased”. The “soft body tone after CGS-21680 treatment” value [1, 4] was “decreased”, the “effect on catalepsy time in acute Reserpine induced catalepsy model” value [2] was “reduced catalepsy time; also recorded: significant reduction of catalepsy time” and the “maximum catalepsy values after Reserpine treatment” value [2] was “significantly decreased”. The “median catalepsy values after Reserpine treatment” value [2] was “significantly decreased”.
